Source: ChEMBL document CHEMBL1201862, “PubChem BioAssay data set” (2004)
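Each compound was tested at five concentrations against cells in 96-well plates for 48 hours. GI50 = concentration required for 50% inhibition of growth.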 The source made the active and inactive calls. Rule as the data show it: active = GI50 up to about 1.1 µM and inactive = higher.

Key:
Assay in all cases: NCI tumour cell line growth inhibition, 48 h
A498 = tested on: A498
K562 = tested on: K562
Malme-3M = tested on: Malme-3M
MOLT-4 = tested on: MOLT-4
NCI-H226 = tested on: NCI-H226
MDA-MB-231 = tested on: MDA-MB-231
KM12 = tested on: KM12
UACC-257 = tested on: UACC-257
HCT-15 = tested on: HCT-15
SNB-19 = tested on: SNB-19
HCC 2998 = tested on: HCC 2998
NCI-H23 = tested on: NCI-H23
OVCAR-5 = tested on: OVCAR-5
BT-549 = tested on: BT-549
MDA-MB-435 = tested on: MDA-MB-435
SK-MEL-2 = tested on: SK-MEL-2
PC-3 = tested on: PC-3
HOP-62 = tested on: HOP-62
MDA-N = tested on: MDA-N
TK-10 = tested on: TK-10
NCI/ADR-RES = tested on: NCI/ADR-RES
HOP-92 = tested on: HOP-92
A549 = tested on: A549
HCT-116 = tested on: HCT-116
CAKI-1 = tested on: CAKI-1
OVCAR-4 = tested on: OVCAR-4
SN12C = tested on: SN12C
EKVX = tested on: EKVX
MCF7 = tested on: MCF7
Hs-578T = tested on: Hs-578T
OVCAR-8 = tested on: OVCAR-8
HL-60 = tested on: HL-60
NCI-H522 = tested on: NCI-H522
SR = tested on: SR
U-251 = tested on: U-251
M14 = tested on: M14
RXF 393 = tested on: RXF 393
ACHN = tested on: ACHN
OVCAR-3 = tested on: OVCAR-3
UO-31 = tested on: UO-31
CCRF-CEM = tested on: CCRF-CEM
SF-539 = tested on: SF-539
COLO 205 = tested on: COLO 205
LOX IMVI = tested on: LOX IMVI
SK-OV-3 = tested on: SK-OV-3
786-0 = tested on: 786-0
SK-MEL-5 = tested on: SK-MEL-5
NCI-H460 = tested on: NCI-H460
UACC-62 = tested on: UACC-62
HT-29 = tested on: HT-29
SF-268 = tested on: SF-268
SF-295 = tested on: SF-295
SW-620 = tested on: SW-620
SNB-75 = tested on: SNB-75
DU-145 = tested on: DU-145
T47D = tested on: T47D
SK-MEL-28 = tested on: SK-MEL-28
IGROV-1 = tested on: IGROV-1
RPMI-8226 = tested on: RPMI-8226

## CC1(C)CC(=O)c2c(nc3c4c([nH]c(-c5ccc([N+](=O)[O-])cc5)c24)CC(C)(C)C3)C1
A498
  GI50: 4.26 µM (inactive)
K562
  GI50: 20.1 µM (inactive)
Malme-3M
  GI50: > 100 µM (inactive)
MOLT-4
  GI50: 4.14 µM (inactive)
NCI-H226
  GI50: 43.8 µM (inactive)
MDA-MB-231
  GI50: 43.6 µM (inactive)
KM12
  GI50: 37.4 µM (inactive)
UACC-257
  GI50: 67 µM (inactive)
HCT-15
  GI50: 25.2 µM
SNB-19
  GI50: 48.4 µM (inactive)
HCC 2998
  GI50: 27.5 µM (inactive)
NCI-H23
  GI50: 48.5 µM (inactive)
OVCAR-5
  GI50: 58.1 µM (inactive)
BT-549
  GI50: 34 µM (inactive)
MDA-MB-435
  GI50: 24.7 µM (inactive)
SK-MEL-2
  GI50: 35.2 µM (inactive)
PC-3
  GI50: 31.7 µM (inactive)
HOP-62
  GI50: > 100 µM (inactive)
MDA-N
  GI50: 33 µM (inactive)
TK-10
  GI50: 50.7 µM (inactive)
NCI/ADR-RES
  GI50: 21.5 µM (inactive)
HOP-92
  GI50: 19.9 µM (inactive)
A549
  GI50: 27.6 µM (inactive)
HCT-116
  GI50: 41.1 µM (inactive)
CAKI-1
  GI50: 44.1 µM (inactive)
OVCAR-4
  GI50: 34 µM (inactive)
SN12C
  GI50: 53.3 µM (inactive)
EKVX
  GI50: 61.4 µM (inactive)
MCF7
  GI50: 27.7 µM (inactive)
Hs-578T
  GI50: 56.5 µM (inactive)
OVCAR-8
  GI50: 38.3 µM (inactive)
HL-60
  GI50: 15.6 µM (inactive)
NCI-H522
  GI50: 48.5 µM (inactive)
SR
  GI50: 1.07 µM (active)
U-251
  GI50: 26.7 µM (inactive)
M14
  GI50: 27.7 µM (inactive)
RXF 393
  GI50: 25.8 µM (inactive)
ACHN
  GI50: 28 µM (inactive)
OVCAR-3
  GI50: 85.5 µM (inactive)
UO-31
  GI50: 29.6 µM (inactive)
CCRF-CEM
  GI50: 10.1 µM (inactive)
SF-539
  GI50: 65.3 µM (inactive)
COLO 205
  GI50: 17 µM (inactive)
LOX IMVI
  GI50: 31.3 µM (inactive)
SK-OV-3
  GI50: > 100 µM (inactive)
786-0
  GI50: 21.3 µM (inactive)
SK-MEL-5
  GI50: 26.2 µM (inactive)
NCI-H460
  GI50: 38.5 µM (inactive)
UACC-62
  GI50: 21.7 µM (inactive)
HT-29
  GI50: 11.1 µM (inactive)
SF-268
  GI50: 50.9 µM (inactive)
SF-295
  GI50: 30 µM (inactive)
SW-620
  GI50: 47.4 µM (inactive)
SNB-75
  GI50: 24.8 µM (inactive)
DU-145
  GI50: 81.8 µM (inactive)
T47D
  GI50: 26.9 µM (inactive)
SK-MEL-28
  GI50: 60.8 µM (inactive)

## Nc1nc(N)nc(CC(=O)O)n1
A498
  GI50: > 100 µM (inactive)
K562
  GI50: > 100 µM (inactive)
Malme-3M
  GI50: > 100 µM (inactive)
IGROV-1
  GI50: > 100 µM (inactive)
MOLT-4
  GI50: > 100 µM (inactive)
NCI-H226
  GI50: > 100 µM (inactive)
MDA-MB-231
  GI50: > 100 µM (inactive)
KM12
  GI50: > 100 µM (inactive)
UACC-257
  GI50: > 100 µM (inactive)
HCT-15
  GI50: > 100 µM
SNB-19
  GI50: > 100 µM (inactive)
NCI-H23
  GI50: > 100 µM (inactive)
OVCAR-5
  GI50: > 100 µM (inactive)
BT-549
  GI50: > 100 µM (inactive)
MDA-MB-435
  GI50: > 100 µM (inactive)
SK-MEL-2
  GI50: > 100 µM (inactive)
PC-3
  GI50: > 100 µM (inactive)
HOP-62
  GI50: > 100 µM (inactive)
MDA-N
  GI50: > 100 µM (inactive)
TK-10
  GI50: > 100 µM (inactive)
NCI/ADR-RES
  GI50: > 100 µM (inactive)
HOP-92
  GI50: > 100 µM (inactive)
A549
  GI50: > 100 µM (inactive)
HCT-116
  GI50: > 100 µM (inactive)
CAKI-1
  GI50: > 100 µM (inactive)
OVCAR-4
  GI50: > 100 µM (inactive)
SN12C
  GI50: > 100 µM (inactive)
RPMI-8226
  GI50: > 100 µM (inactive)
EKVX
  GI50: > 100 µM (inactive)
MCF7
  GI50: > 100 µM (inactive)
Hs-578T
  GI50: > 100 µM (inactive)
OVCAR-8
  GI50: > 100 µM (inactive)
HL-60
  GI50: > 100 µM (inactive)
NCI-H522
  GI50: > 100 µM (inactive)
SR
  GI50: > 100 µM (inactive)
U-251
  GI50: > 100 µM (inactive)
M14
  GI50: > 100 µM (inactive)
RXF 393
  GI50: > 100 µM (inactive)
ACHN
  GI50: > 100 µM (inactive)
OVCAR-3
  GI50: > 100 µM (inactive)
UO-31
  GI50: > 100 µM (inactive)
CCRF-CEM
  GI50: > 100 µM (inactive)
SF-539
  GI50: > 100 µM (inactive)
COLO 205
  GI50: > 100 µM (inactive)
LOX IMVI
  GI50: > 100 µM (inactive)
SK-OV-3
  GI50: > 100 µM (inactive)
786-0
  GI50: > 100 µM (inactive)
SK-MEL-5
  GI50: > 100 µM (inactive)
NCI-H460
  GI50: > 100 µM (inactive)
UACC-62
  GI50: > 100 µM (inactive)
HT-29
  GI50: > 100 µM (inactive)
SF-268
  GI50: > 100 µM (inactive)
SF-295
  GI50: > 100 µM (inactive)
SW-620
  GI50: > 100 µM (inactive)
SNB-75
  GI50: > 100 µM (inactive)
DU-145
  GI50: > 100 µM (inactive)
T47D
  GI50: > 100 µM (inactive)
SK-MEL-28
  GI50: > 100 µM (inactive)
